# Experimental data taken from patent US7732637B2, “Acylamide compounds having secretagogue or inducer activity of adiponectin” (Ajinomoto Co., Inc., priority 2005, dated 2010).
# Experiments:
# [1] = system: 3T3-L1 cells; assay: Adiponectin output in culture supernatant of differentiated 3T3-L1 cells (LANCE immunoassay); assay type: cell-based, mouse; conditions: for Adiponectin output: adiponectin concentration in culture supernatant, 72 hours, control without compound 24 ng/mL; for Adiponectin Ratio to Exam. 20 of Table 1: adiponectin output as ratio to that of Example 20 in Table 1, same method as Examples 1 to 31
# Protocol: 3T3-L1 cells were suspended in Dulbecco's Modified Eagle Medium (GIBCO, 12430-054) containing 10% fetal bovine serum to become 1.5×10^5 cells/mL and seeded. After the incubation in the CO2 incubator at 37° C. for 72 hours, the medium was removed by suction. Then, the medium was exchanged for Dulbecco's Modified Eagle Medium containing 10 μg/mL of insulin, 1 μM of dexamethasone, 0.5 mM of IBMX (3-isobutyl-1-methylxanthine) and 10% fetal bovine serum, and further incubated in the CO2 incubator at 37° C. for 48 hours. The test compound was added to the medium, and then the incubation was continued for 72 hours.
# Eu (Europium) chelate labeling of anti-mouse adiponectin antibody (AF1119, by R&D Systems) was conducted by using 100 μg of LANCE Eu-W1024-ITC chelate (AD0013 by Perkin Elmer), which is a Eu chelate labeling reagent, to 200 μg of the antibody in accordance with the method described in the manual of the manufacturer. Biotin labeling of anti-mouse adiponectin antibody (AF1119, by R&D Systems) was conducted by using 26.8 μg of NHS-Biotin (1418165, Biotin Labeling Kit, by Boehringer Mannheim), which is a biotin labeling reagent, to 100 μg of the antibody in accordance with the method described in the manual.
# The amount of adiponectin in the cell culture supernatant was measured as follows. The culture supernatant was diluted fivefold with TBS (Tris-buffered saline; 20 mM Tris-HCl pH 7.4, 0.15M NaCl) containing 0.1% bovine serum albumin (BSA), and 10 μL thereof was mixed with 300 ng/mL of the Eu chelate labeled antibody, 300 ng/mL of the biotin labeled antibody, 2.5 μg/mL of Streptavidin-APC (AD0201, by Perkin Elmer) and 10 μL of a TBS solution containing 0.1% BSA on the 384-well plate. After preserving the mixture at room temperature for 2 days, LANCE count was measured by using ARVO-SX multilabel counter (by Perkin Elmer) in accordance with the protocol of the LANCE method. At the same time, the mouse adiponectin preparation (8060-K, by LINCO) was also measured, and the concentration of adiponectin in the culture supernatant was calculated from the calibration curve of the preparation.
# Adiponectin outputs were measured by the same method as that of Examples 1 to 31.
# [2] = system: ob/ob mice; assay: Oral administration to ob/ob mice on 25% fat diet: blood glucose, glycated hemoglobin, plasma insulin and triglyceride; assay type: in vivo; conditions: 500 mg/kg orally once a day
# Protocol: Male ob/ob mice of 5 weeks old (purchased from Charles River Laboratories Japan, Inc.) were preliminarily fed for one week by an experimental diet containing 25% by weight ratio of fats. Then, they were divided into groups so that their body weights and blood glucose were the same between the groups. After the division, N-lauroyl-L-valine (500 mg/kg) was orally administered once a day, and a control group was set, to which vehicle was administered. Taking into consideration the possibility that the effect of N-lauroyl-L-valine depends on the diet intake, pair-feeding group was also set as a control group in addition to the vehicle administered group, to which vehicle was daily administered in an average diet intake per a day of the N-lauroyl-L-valine administered group and, therefore, the diet intake thereof is quite the same as that of the N-lauroyl-L-valine administered group during the test period. The non-fasting blood glucose was measured on the 6th, 14th and 26th day after starting the administration. The blood glucose was measured by collecting 6 μL of the blood from the caudal vein and using a Fuji DriChem system (produced by FUJIFILM Medical Co., Ltd.). On the 26th day after starting the administration, the blood was collected by retroorbital bleeding, and 5 μL of its blood was used to conduct the measurement of glycated hemoglobin with the analyzer (HLC-723 GHbV, by Tosoh Technosystem). Further, on the 27th day after starting the administration, the blood was collected by retroorbital bleeding, and the insulin and triglyceride concentrations in plasma were measured. The measurement of the insulin concentration in plasma was conducted by using an insulin measurement kit (by Morinaga Institute of Biological Science, Inc.). The measurement of the triglyceride concentration in plasma was conducted by using a Fuji DriChem system. On the 38th day after staring the administration, autopsy was conducted to collect the liver of the mouse. Then, total RNA was extracted from the frozen liver by using ISOGEN (by Nippon Gene Co., Ltd.), and 0.5 μg of total RNA, oligo (dT) (by Invitrogen) and SuperScript III reverse transcriptase (by Invitrogen) were used to prepare cDNA. SYBER GREEN Master Mix (ABI) and a primer for amplifying uncoupling protein 2 (UCP2) gene, acyl-CoA oxidase (ACO) gene or glyceraldehyde-3-phosphate dehydrogenase (GAPDH) gene were added to cDNA corresponding to 7.5 ng of total RNA, and the gene expression level was measured with ABI 7700 detector. The expression levels of UCP2 and ACO genes were amended by being divided by the expression level of GAPDH mRNA. Two kinds of primers for amplifying UCP2 gene were used wherein the base sequences were ggcctctggaaagggactt and […] from 5′. […]
# [3] = system: acyl-CoA oxidase (ACO) gene; assay: ACO mRNA expression level in liver of ob/ob mice; assay type: in vivo; conditions: 500 mg/kg orally once a day; autopsy 38th day; divided by GAPDH mRNA; vs control groups; FIG. 5
# Protocol: (§1) Male ob/ob mice of 5 weeks old (purchased from Charles River Laboratories Japan, Inc.) were preliminarily fed for one week by an experimental diet containing 25% by weight ratio of fats. Then, they were divided into groups so that their body weights and blood glucose were the same between the groups. After the division, N-lauroyl-L-valine (500 mg/kg) was orally administered once a day, and a control group was set, to which vehicle was administered. […] The non-fasting blood glucose was measured on the 6th, 14th and 26th day after starting the administration. The blood glucose was measured by collecting 6 μL of the blood from the caudal vein and using a Fuji DriChem system (produced by FUJIFILM Medical Co., Ltd.). […] Further, on the 27th day after starting the administration, the blood was collected by retroorbital bleeding, and the insulin and triglyceride concentrations in plasma were measured. […] SYBER GREEN Master Mix (ABI) and a primer for amplifying uncoupling protein 2 (UCP2) gene, acyl-CoA oxidase (ACO) gene or glyceraldehyde-3-phosphate dehydrogenase (GAPDH) gene were added to cDNA corresponding to 7.5 ng of total RNA, and the gene expression level was measured with ABI 7700 detector. […]
# [4] = system: uncoupling protein 2 (UCP2) gene; assay: UCP2 mRNA expression level in liver of ob/ob mice; assay type: in vivo; conditions: 500 mg/kg orally once a day; autopsy 38th day; divided by GAPDH mRNA; vs control groups; FIG. 4
# Protocol: as §1
compound,measurement,setting,value
CCCCCCCCCCCC(=O)NC(C)(CC)C(=O)O (racemic) [Example 16],Adiponectin output,[1]; test compound 7 μg/mL,78 ng/mL
CCCCCCCCCCCC(=O)NC(C)(C(=O)O)C(C)C (racemic) [Example 18],Adiponectin output,[1]; test compound 7 μg/mL,87 ng/mL
CCCCCCCCCCCC(=O)NC(C(N)=O)C(C)C (racemic) [Example 21],Adiponectin output,[1]; test compound 7 μg/mL,70 ng/mL
CCCCCCCCCCCCNC(=O)C(NC(=O)CCCCCCCCCCC)C(C)C (racemic) [Example 22],Adiponectin output,[1]; test compound 7 μg/mL,64 ng/mL
"CCCCCCCCCCCC(=O)N[C@H](C(=O)NC1CCCCC1)C(C)C (racemic) [Example 23, N-lauroyl-L-valine cyclohexylamide]",Adiponectin output,[1]; test compound 7 μg/mL,65 ng/mL
CCCCCCCCCCCC(=O)NC(C(=O)O)C(C(F)(F)F)C(F)(F)F (racemic) [Example 34],Adiponectin Ratio to Exam. 20 of Table 1,[1],25%
CCCCCCCCCCCC(=O)NC(Cc1ccccc1C)C(=O)O (racemic) [Example 38],Adiponectin Ratio to Exam. 20 of Table 1,[1],31%
CCCCCCCCCCCC(=O)NC(C)(Cc1ccccc1)C(=O)O (racemic) [Example 41],Adiponectin Ratio to Exam. 20 of Table 1,[1],22%
CCCCCCCCC(=O)N[C@H](C(=O)O)[C@@H](C)CC [Example 2],Adiponectin output,[1]; test compound 12.5 μM,58 ng/mL
CCCCCCCCC(=O)N[C@@H](CC(C)C)C(=O)O [Example 3],Adiponectin output,[1]; test compound 12.5 μM,42 ng/mL
CCCCCCCCC(=O)N[C@H](C(=O)O)C(C)C [Example 4],Adiponectin output,[1]; test compound 12.5 μM,64 ng/mL
CCCCCCCCCC(=O)N[C@H](C(=O)O)[C@@H](C)CC [Example 5],Adiponectin output,[1]; test compound 12.5 μM,74 ng/mL
CCCCCCCCCC(=O)N[C@@H](CC(C)C)C(=O)O [Example 6],Adiponectin output,[1]; test compound 12.5 μM,54 ng/mL
C=CCCCCCCCCC(=O)N[C@@H](CC(C)C)C(=O)O [Example 7],Adiponectin output,[1]; test compound 12.5 μM,61 ng/mL
C=CCCCCCCCCC(=O)N[C@@H](Cc1ccccc1)C(=O)O [Example 8],Adiponectin output,[1]; test compound 7 μg/mL,54 ng/mL
CCCCCCCCCC(=O)N[C@H](C(=O)O)C(C)C [Example 9],Adiponectin output,[1]; test compound 12.5 μM,81 ng/mL
C=CCCCCCCCCC(=O)N[C@H](C(=O)O)C(C)C [Example 10],Adiponectin output,[1]; test compound 12.5 μM,59 ng/mL
CCCCCCCCCCC(=O)N[C@@H](CC(C)C)C(=O)O [Example 11],Adiponectin output,[1]; test compound 12.5 μM,45 ng/mL
CCCCCCCCCCC(=O)N[C@@H](Cc1ccccc1)C(=O)O [Example 12],Adiponectin output,[1]; test compound 7 μg/mL,58 ng/mL
CCCCCCCCCCCC(=O)N[C@H](C(=O)O)[C@@H](C)CC [Example 14],Adiponectin output,[1]; test compound 12.5 μM,84 ng/mL
CCCCCCCCCCCC(=O)N[C@@H](CC(C)C)C(=O)O [Example 15],Adiponectin output,[1]; test compound 12.5 μM,67 ng/mL
CCCCCCCCCCCC(=O)NC(C)(C)C(=O)O [Example 17],Adiponectin output,[1]; test compound 7 μg/mL,81 ng/mL
CCCCCCCCCCCC(=O)N[C@@H](CCSC)C(=O)O [Example 19],Adiponectin output,[1]; test compound 7 μg/mL,71 ng/mL
"CCCCCCCCCCCC(=O)N[C@H](C(=O)O)C(C)C [Example 20, N-lauroyl-L-valine]",non-fasting blood glucose,"[2]; 6th, 14th and 26th day vs before starting the administration, FIG. 1",decreased
same,glycated hemoglobin level,"[2]; 26th day, vs vehicle group and pair-feeding group, FIG. 2",significantly lower
same,fasting insulin concentration in plasma,"[2]; 27th day vs before, increased in control groups, FIG. 3",such increase was not seen
same,triglyceride concentration in plasma,"[2]; 27th day, vs control groups, FIG. 6",tended to be lower
same,ACO mRNA expression level in the liver,[3],significantly increased
same,Adiponectin output,[1]; test compound 12.5 μM,92 ng/mL
same,UCP2 mRNA expression level in the liver,[4],significantly increased
CCCCCCCCCCCC(=O)N(CC)[C@H](C(=O)O)C(C)C [Example 24],Adiponectin output,[1]; test compound 7 μg/mL,66 ng/mL
CCCCCCCCCCCCCC(=O)N[C@H](C(=O)O)[C@@H](C)CC [Example 25],Adiponectin output,[1]; test compound 12.5 μM,93 ng/mL
CCCCCCCCCCCCCC(=O)N[C@@H](CC(C)C)C(=O)O [Example 26],Adiponectin output,[1]; test compound 12.5 μM,56 ng/mL
CCCCCCCCCCCCCCCC(=O)N[C@@H](CC(C)C)C(=O)O [Example 27],Adiponectin output,[1]; test compound 12.5 μM,57 ng/mL
CCCCCCCCCCCCCCCC(=O)N[C@H](C(=O)O)C(C)C [Example 28],Adiponectin output,[1]; test compound 12.5 μM,31 ng/mL
CCCCCCCCCCCCCCCCCC(=O)N[C@@H](CC(C)C)C(=O)O [Example 29],Adiponectin output,[1]; test compound 12.5 μM,43 ng/mL
CCCCCCCCCCCCCCCCCC(=O)N[C@H](C(=O)O)C(C)C [Example 30],Adiponectin output,[1]; test compound 12.5 μM,43 ng/mL
CCCCCCCCCCCCCCCCCCCCCC(=O)N[C@H](C(=O)O)C(C)C [Example 31],Adiponectin output,[1]; test compound 12.5 μM,42 ng/mL
CCCCCCCCCC(=O)N[C@H](C(=O)O)C(C)(C)C [Example 32],Adiponectin Ratio to Exam. 20 of Table 1,[1],56%
CCCCCCCCCCCC(=O)N[C@H](C(=O)O)C(C)(C)C [Example 33],Adiponectin Ratio to Exam. 20 of Table 1,[1],103%
CCCCCCCCCCCC(=O)NC(C(=O)O)C(C)CC (centres unmarked) [Example 35],Adiponectin Ratio to Exam. 20 of Table 1,[1],83%
CCCCCCCCCCCC(=O)N[C@H](C(=O)O)c1ccccc1 [Example 36],Adiponectin Ratio to Exam. 20 of Table 1,[1],33%
CCCCCCCCCCCC(=O)N[C@@H](Cc1ccc(OC)cc1)C(=O)O [Example 37],Adiponectin Ratio to Exam. 20 of Table 1,[1],46%
CCCCCCCCCCCC(=O)N[C@H](C(=O)O)C1CCCCC1 [Example 39],Adiponectin Ratio to Exam. 20 of Table 1,[1],41%
CCCCCCCCCCCC(=O)N[C@H](C(=O)O)C(c1ccccc1)c1ccccc1 [Example 40],Adiponectin Ratio to Exam. 20 of Table 1,[1],14%
CCCCCCCCCCCC(=O)N[C@@H](Cc1ccc(Cl)cc1)C(=O)O [Example 42],Adiponectin Ratio to Exam. 20 of Table 1,[1],44%
CCCCCCCCCCCC(=O)N[C@@H](Cc1csc2ccccc12)C(=O)O [Example 43],Adiponectin Ratio to Exam. 20 of Table 1,[1],20%
